From paper PMC4503722, “Novel Phenotypic Outcomes Identified for a Public Collection of Approved Drugs from a Publicly Accessible Panel of Assays” (PLoS ONE, 2015)
Like-named read-outs stand apart in the source and are kept apart here.

Experiments:
SNU-C1 = test: cells; format: cell-based; conditions: assay number 30; basal
HT-29 = test: cells; format: cell-based; conditions: assay number 28; basal
HCT116 = test: cells; format: cell-based
[1] = system: tonic K+ channel activity in INS-1E cells; test: cells; format: cell-based, rat
INS-1E cells [2] = format: cell-based, rat
INS-1E cells [3] = test: cells; format: cell-based, rat; conditions: for EC50: Rattus norvegicus, INS-1E
HeLa cells = test: cells; format: cell-based
SW480 = test: cells; format: cell-based
Colo320 = test: cells; format: cell-based; conditions: assay number 27; basal
DLD-1 = test: cells; format: cell-based
RKO = test: cells; format: cell-based; conditions: assay number 29; basal
NCI-H716 cells = test: cells; format: cell-based, Human; conditions: Homo sapiens, NCI-H716, read-out: GLP1 sec. EC50
[4] = system: HCT116 cells treated with a GSK3β inhibitor; test: cells; format: cell-based; conditions: Homo sapiens, HCT-116, 72 h, read-out: HCT-116 (GSK3β) viab. IC50
SUR2/Kir6.2 = conditions: read-out: SUR2/Kir6.2 inhibition IC50; cited from earlier work
[5] = system: endothelial tube formation in co-cultures of ECFCs and ADSCs treated with VEGF; test: cells; format: cell-based, human; conditions: Homo sapiens, read-out: Anti-Angio IC50
[6] = AE OSTEONECROSIS, FAERS, ref [45], cited from earlier work
[7] = assay number 10, 0.1 mM glucose
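Wherever 5mMGluc INS1E SecretionMod IC50/EC50 is given: secreted insulin quantified by homogeneous immunoassay.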
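Wherever IC50/EC50, 5mMGluc INS1E SecretionMod (assay number 8) is given: secreted insulin quantified by homogeneous immunoassay.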

## CN(C)CCOC(c1ccccc1)c1ccc(Br)cc1 (stereo not shown) [NCGC00249891-01]
SNU-C1
  Basal_Viability ATP SNU-C1 IC50/EC50: 3.0987 µM
HT-29
  Basal_Viability ATP HT-29 IC50/EC50: 17.0256 µM
HCT116; assay number 25, basal
  Basal_Viability ATP HCT116 IC50/EC50: > 20 µM
[1]; [7]
  0.1mMGluc_INS1E FluxOR IC50/EC50: 10.9665 µM
INS-1E cells [2]; assay number 9, 0.1 mM glucose
  0.1mMGluc_INS1E SecretionMod Act IC50/EC50: > 33.33 µM
INS-1E cells [3]; assay number 8, 5 mM glucose
  5mMGluc_INS1E SecretionMod IC50/EC50: 2.767 µM
HeLa cells; assay number 14, 2N
  Hela CellCycMod PI 2N IC50/EC50: > 10 µM
HeLa cells; assay number 15, S phase
  Hela CellCycMod PI S Phase IC50/EC50: > 10 µM
HeLa cells; assay number 16, 4N
  Hela CellCycMod PI 4N IC50/EC50: > 10 µM
HeLa cells; assay number 17, MI
  Hela CellCycMod PI MI IC50/EC50: > 10 µM
HeLa cells; assay number 18, cell number
  Hela CellCycMod PI Cell Number IC50/EC50: > 10 µM
SW480; assay number 24, basal
  Basal_Viability ATP SW480 IC50/EC50: > 20 µM
Colo320
  Basal_Viability ATP Colo 320 IC50/EC50: > 20 µM
DLD-1; assay number 23, basal
  Basal_Viability ATP DLD-1 IC50/EC50: > 20 µM
RKO
  Basal_Viability ATP RKO IC50/EC50: > 20 µM

## CC(CC1c2ccccc2CCc2ccccc21)CN(C)C (stereo not shown) [NCGC00274277-01]
[1]
  0.1mMGluc_INS1E FluxOR IC50/EC50: 19.9984 µM
INS-1E cells [2]
  0.1mMGluc_INS1E SecretionMod Act IC50/EC50: > 33.33 µM
INS-1E cells [3]
  5mMGluc_INS1E SecretionMod IC50/EC50: 3.6382 µM
HeLa cells
  Hela CellCycMod PI 2N IC50/EC50: > 10 µM
  Hela CellCycMod PI 4N IC50/EC50: > 10 µM
  Hela CellCycMod PI Cell Number IC50/EC50: > 10 µM
  Hela CellCycMod PI MI IC50/EC50: > 10 µM
  Hela CellCycMod PI S Phase IC50/EC50: > 10 µM

## CCN(CCCCOC(=O)c1ccc(OC)c(OC)c1)C(C)Cc1ccc(OC)cc1.Cl (stereo not shown) [NCGC00018277-06]
[1]; [7]
  0.1mMGluc_INS1E FluxOR IC50/EC50: 1.737 µM
INS-1E cells [2]; assay number 9, 0.1 mM glucose
  0.1mMGluc_INS1E SecretionMod Act IC50/EC50: > 33.33 µM
INS-1E cells [3]; assay number 8, 5 mM glucose
  5mMGluc_INS1E SecretionMod IC50/EC50: 1.952 µM
HeLa cells; assay number 14, 2N
  Hela CellCycMod PI 2N IC50/EC50: > 10 µM
HeLa cells; assay number 15, S phase
  Hela CellCycMod PI S Phase IC50/EC50: > 10 µM
HeLa cells; assay number 16, 4N
  Hela CellCycMod PI 4N IC50/EC50: > 10 µM
HeLa cells; assay number 17, MI
  Hela CellCycMod PI MI IC50/EC50: > 10 µM
HeLa cells; assay number 18, cell number
  Hela CellCycMod PI Cell Number IC50/EC50: > 10 µM

## CCN(CC)CCOc1ccccc1C(=O)CCc1ccccc1 [NCGC00160484-02]
[1]; 0.1 mM glucose
  IC50/EC50, 0.1mMGluc_INS1E FluxOR (assay number 10): 6.739 µM
INS-1E cells [2]; 0.1 mM glucose
  IC50/EC50, 0.1mMGluc_INS1E SecretionMod Act (assay number 9): > 33.33 µM
INS-1E cells [3]; 5 mM glucose
  IC50/EC50, 5mMGluc_INS1E SecretionMod (assay number 8): 3.892 µM
HeLa cells; 2N
  IC50/EC50, Hela CellCycMod PI 2N (assay number 14): > 10 µM
HeLa cells; 4N
  IC50/EC50, Hela CellCycMod PI 4N (assay number 16): > 10 µM
HeLa cells
  IC50/EC50, Hela CellCycMod PI Cell Number (assay number 18): > 10 µM
  IC50/EC50, Hela CellCycMod PI S Phase (assay number 15): > 10 µM
HeLa cells; MI
  IC50/EC50, Hela CellCycMod PI MI (assay number 17): > 10 µM

## CN(C)CCC=C1c2ccccc2CCc2ccccc21.Cl [NCGC00015095-15]
[1]; 0.1 mM glucose
  IC50/EC50, 0.1mMGluc_INS1E FluxOR (assay number 10): 6.243 µM
INS-1E cells [2]; 0.1 mM glucose
  IC50/EC50, 0.1mMGluc_INS1E SecretionMod Act (assay number 9): > 33.33 µM
INS-1E cells [3]; 5 mM glucose
  IC50/EC50, 5mMGluc_INS1E SecretionMod (assay number 8): 2.999 µM
HeLa cells; 2N
  IC50/EC50, Hela CellCycMod PI 2N (assay number 14): > 10 µM
HeLa cells; 4N
  IC50/EC50, Hela CellCycMod PI 4N (assay number 16): > 10 µM
HeLa cells
  IC50/EC50, Hela CellCycMod PI Cell Number (assay number 18): > 10 µM
  IC50/EC50, Hela CellCycMod PI S Phase (assay number 15): > 10 µM
HeLa cells; MI
  IC50/EC50, Hela CellCycMod PI MI (assay number 17): > 10 µM

## CCCNCC(O)COc1ccccc1C(=O)CCc1ccccc1 (stereo not shown) [propafenone, reference compound]
NCI-H716 cells
  EC50: > 10 µM
[4]
  IC50: > 20 µM
SUR2/Kir6.2
  IC50: 2.2 µM
HCT116; Homo sapiens, HCT-116, 72 h, read-out: HCT-116 viab. IC50
  IC50: > 20 µM
[5]
  IC50: > 10 µM
[1]; Rattus norvegicus, INS-1E, read-out: K+ channel assay IC50
  IC50: 5.4 µM
INS-1E cells [3]; read-out: Ins. sec. EC50
  EC50: 4.9 µM
INS-1E cells [3]; read-out: Insulin Secretion
  EC50: 4.92 µM
HeLa cells; Homo sapiens, HeLa, read-out: CellCycle G2/M
  EC50: > 10 µM
SW480; Homo sapiens, SW480, 72 h, read-out: SW480 viab. IC50
  IC50: > 20 µM
DLD-1; Homo sapiens, DLD-1, 72 h, read-out: DLD-1 viab. IC50
  IC50: > 20 µM

## [H]/N=C(\N/C(=N/[H])NCCCCCCNC(=N)NC(=N)Nc1ccc(Cl)cc1)Nc1ccc(Cl)cc1 [Chlorhexidine]
[6]; Drug A with vs without methotrexate
  Adjusted Z-Score: -2.347
[6]; with methotrexate
  # of Specific AE Occurrence With Drug A With Drug B: 31
[6]; without methotrexate
  # of Specific AE Occurrence With Drug A Without Drug B: 899
